Data as given in US20030108610A1, “Methods and compositions for the delivery of pharmaceutical agents and/or the prevention of adhesions” (priority 1996, published 2003).

Experiments:
[1] = 20% w/w poloxamer 407F
Experimental: Hydrophilic co-surfactants in the form of fatty acid soaps (i.e. sodium oleate, sodium laurate, sodium caprate, and sodium caprylate) were obtained from Nu-Chek Prep. (Elysian, Minn.).
For phase behavior studies, samples were loaded into 5 ml Wheaton vacuoles (Fisher Scientific, Pittsburgh, Pa.), and flame-sealed. The vacuoles were then immersed in a constant temperature bath. For temperatures less than 60° C., phase behavior was determined in a water bath (Koehler, Bohemia, N.Y.). At higher temperatures an oil bath (Haake, model DC3, Germany) was utilized. Temperature was raised in two degree increments from ca. 1° C. to 120° C. Samples were allowed to equilibrate for at least 1 hour at constant temperature prior to examination. Since the cubic liquid crystalline phase is isotropic (i.e. not birefringent), the determination of the gel boundary is somewhat subjective. Once equilibrium was reached, the vials were simply inverted and gravity was allowed to determine if the sample was in the sol or gel state.

[2] = Drug solubilization in poloxamer 407-water systems, apparent distribution coefficient micellar/aqueous phase; assay type: physicochemical
Experimental: The next day the sample was warmed momentarily to 40° C. to hasten solubilization. This process was repeated two or three times to ensure saturation. […] Prior to analysis, the samples were filtered through a 0.2 μm nylon filter syringe to remove unsolubilized drug. Samples were assayed for solubilized drug concentrations by absorbance spectroscopy (see below).
Drug Concentration Determinations. The samples were diluted to a suitable concentration with ethanol (for water insoluble drugs) or DI water. Drug concentrations were measured at the appropriate wavelength for each drug (see Table I) using a UV/Vis spectrophotometer (Beckman model DU-65). Concentrations were determined using Beer's law from the appropriate calibration curve (Table II). Gentamicin sulfate determination was performed by the UCSD Medical Center laboratory.
Where S and So are the concentration of solubilized drug in the presence and absence of poloxamer, respectively.

[3] = In-vitro release rate of drugs in poloxamer gels; assay type: physicochemical; details: within the same poloxamer formulations
Experimental: In-vitro release rate of drugs in poloxamer gels. The in-vitro release rates of drugs in poloxamer-based gels were determined using a modified USP dissolution apparatus (Hanson Research model SR6) equipped with enhancer cells. […] Membranes (1.2 μm cellulose ester membranes, 25 mm diameter, type RAWP) were presoaked in phosphate buffer and placed on the cell. Approximately 0.6 mL of sample in the fluid sol phase was then loaded into each of the enhancer cells. The cells were subsequently closed and the gel phase was allowed to form at room temperature prior to introduction into the dissolution vessels. The dissolution paddles were rotated at a speed of 100 rpm (approximating the hydrodynamic stress found at the peritoneal cavity) and were positioned approximately 1 cm from the top of the cells for all experiments. The in-vitro release of drug from the gels was monitored over a period of 4 hr. One mL samples were collected every 0.5 hr. The vessel was refilled with fresh buffer every time a sample aliquot was removed, and each sample was run in duplicate.

differences in diffusion coefficients or mean dissolution times (MDT) between drugs [3] | Compound | soap concentration required to melt / completely suppress the 20% poloxamer 407F gel [1] [%] | partitioning between poloxamer micelle and bulk aqueous phase [2]
– | CCCCCCCCCC(=O)[O-].[Na+] [sodium caprate] | > 5 | –
no differences were observed | Cc1ccc(C(=O)c2ccc(CC(=O)O)n2C)cc1 [sodium tolmetin, Tolmetin Sodium] | – | partitions almost entirely into the bulk aqueous phase
– | CCCCCCCCCCCC(=O)[O-].[Na+] [12:0 soap, sodium laurate] | 2.5 | –
– | CCCCCCCC(=O)[O-].[Na+] [8:0 soap, sodium caprylate] | ~11.5 | –
